The subject of experiment [1] is Erysiphe [syn. Blumeria] graminis form a specialis. tritici. In words: Efficacy against wheat mildew caused by Erysiphe [syn. Blumeria] graminis forma specialis tritici. The experiment is classed as in vivo. The note with it: wheat seedlings sprayed, dusted with spores 24 hours later, rated after 7 days, untreated control 90% infestation.
In the next experiment the test system is Phytophthora infestans. The experiment is classed as in vivo, Phytophthora infestans on potted tomato plants. Particulars: 1 ppm; protective spray on tomato leaves, infested next day, rated after 6 days; efficiency by Abbot's formula vs untreated control (90% infestation).

With `COc1ccc(C(=CC(=O)N2CCOCC2)c2ccc(Cl)cc2)cc1OC` [dimethomorph (II), 3-(4-chlorophenyl)-3-(3,4-dimethoxyphenyl)-1-morpholin-4-ylpropenone], the “Observed action (%)” value in experiment [1] (4 ppm) is reported as 0%; in the experiment on Phytophthora infestans, 22%. Regarding `COc1ccc(C(=CC(=O)N2CCOCC2)c2ccc(F)cc2)cc1OC` [flumorph (IIA), 4-[3-(3,4-dimethoxyphenyl)-3-(4-fluorophenyl)-1-oxo-2-propenyl]morpholine], the “Observed action (%)” value in experiment [1] (4 ppm) was found to be 0%. For `CO/C=C(/C(=O)OC)c1ccccc1CO/N=C(C)/C=C/c1ccc(Cl)cc1` [enestrobin (I), methyl 2-(2-[3-(4-chlorophenyl)-1-methyl-allylidenaminooxymethyl]phenyl)-3-methoxyacrylate], the “Observed action (%)” value is listed as 33% in experiment [1] (16 ppm) and 0% with Phytophthora infestans.

The values above are taken from patent publication US20080274883A1, “Fungicidal Mixtures” (BASF AKTIENGESELLSCHAFT, priority 2004, published 2008).
